Results from patent US7169773B2, “Compounds” (SmithKline Beecham Corporation, priority 2004, dated 2007).

Columns and labels:
human MC4R = human MC4R (Homo sapiens, UniProt P32245); assay: Reporter Gene Assay (CHO-6×CRE-luc+ reporter cell lines, luciferase); format: cell-based; conditions: for EC50: CHO-6×CRE-luc+ reporter cells expressing human MC4R, 4 h at 37° C., luciferase activity; for % of MSH / Emax: percentage of the fold stimulation in the NDP-αMSH control (1×10^−7 M NDP-αMSH), CHO-6×CRE-luc+ cells, human MC4R; for Emax: 4 h, read-out: % of MSH
Description: Reporter Gene Assay CHO-6×CRE-luc^+ reporter cell lines expressing human MC1R, MC3R, MC4R, and MC5R (GenBank accession numbers X65634, LO6155, S77415 and U08353) and the CHO host reporter gene cell line were propagated in complete medium in T225 flasks. Forty-eight hours prior to assay, cells were harvested with 2 ml of 0.05% trypsin, washed with complete medium and plated at a concentration of 4000 cells/well in complete medium. Sixteen hours prior to the assay, the medium was removed from the cells and replaced with 90 μl/well of serum-free DMEM/F12. At the time of the assay the compounds were added in a 10 μl volume and plates were incubated for 4 h at 37° C. in a cell culture incubator. The medium was aspirated followed by the addition of 50 μl of a 1:1 mixture of LucLiteTM and dPBS containing 1 mM CaCl2 and 1 mM MgCl2. The plates were then sealed and subjected to dark adaptation at room temperature for 10 min before luciferase activity was quantitated on a TopCountTM microplate scintillation counter (Packard) using 3 s/well count time. The NDP-αMSH and […]-5 concentration-response curve data were expressed as a percentage of the fold stimulation in the NDP-αMSH control for each receptor subtype. The control value is the average of duplicate wells treated with 1×10^-7 M NDP-αMSH.

Sequence of human MC4R (P32245 whole entry): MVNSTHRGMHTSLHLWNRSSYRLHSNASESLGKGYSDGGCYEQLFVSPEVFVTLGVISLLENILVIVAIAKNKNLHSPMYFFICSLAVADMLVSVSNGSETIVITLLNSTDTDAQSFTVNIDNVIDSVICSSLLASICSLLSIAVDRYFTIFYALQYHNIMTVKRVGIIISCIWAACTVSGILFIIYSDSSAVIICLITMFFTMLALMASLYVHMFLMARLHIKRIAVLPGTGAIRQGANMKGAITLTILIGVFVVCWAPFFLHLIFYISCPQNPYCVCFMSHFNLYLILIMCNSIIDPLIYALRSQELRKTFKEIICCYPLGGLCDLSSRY

Structure (SMILES)	EC50 (human MC4R) [nM]	% of MSH (human MC4R) [%]	Emax (human MC4R) [%]	melting point [°C]
COc1ccc(N(C(=O)CN2C(=O)C(Cc3n[nH]c4ccccc34)(OC)C(=O)N(c3cccnc3)c3ccccc32)C(C)C)cc1 (single isomer, unassigned) [Example 9, 2-[3-(1H-indazol-3-ylmethyl)-3-methoxy-2,4-dioxo-5-pyridin-3-yl-2,3,4,5-tetrahydro-1H-1,5-benzodiazepin-1-yl]-N-isopropyl-N-(4-methoxyphenyl)acetamide]	158	68		
Cc1cc(C)c2c(c1)N(C(=O)CN1C(=O)C(Cc3n[nH]c4ccccc34)C(=O)N(c3ccccc3)c3ccccc31)CCCC2 (racemic) [Example 3, 1-[2-(6,8-dimethyl-2,3,4,5-tetrahydro-1H-1-benzazepin-1-yl)-2-oxoethyl]-3(1H-indazol-3-ylmethyl)-5-phenyl-1H-1,5-benzodiazepine-2,4(3H,5H)-dione]	60.3		47	
COc1ccc2c(c1)CCCCN2C(=O)CN1C(=O)C(Cc2n[nH]c3ccccc23)C(=O)N(c2ccccc2)c2ccccc21 (centres unmarked) [Example 2, 3-(1H-indazol-3-ylmethyl)-1-[2-(7-methoxy-2,3,4,5-tetrahydro-1H-1-benzazepin-1-yl)-2-oxoethyl]-5-phenyl-1H-1,5-benzodiazepine-2,4(3H,5H)-dione]	288		42	215 to 230
COc1ccc(N(C(=O)CN2C(=O)C(Cc3n[nH]c4ccccc34)(OC)C(=O)N(c3cccnc3)c3ccccc32)C(C)C)cc1 (single isomer, unassigned) [Example 10, 2-[3-(1H-indazol-3-ylmethyl)-3-methoxy-2,4-dioxo-5-pyridin-3-yl-2,3,4,5-tetrahydro-1H-1,5-benzodiazepin-1-yl]-N-isopropyl-N-(4-methoxyphenyl)acetamide]	200	29		
COc1cccc2c1CCCCN2C(=O)CN1C(=O)[C@@H](Cc2n[nH]c3c2CCCC3)C(=O)N(c2ccccc2)c2ccccc21 [Example 7, (3R)-1-[2-(6-methoxy-2,3,4,5-tetrahydro-1H-1-benzazepin-1-yl)-2-oxoethyl]-5-phenyl-3-(4,5,6,7-tetrahydro-1H-indazol-3-ylmethyl)-1H-1,5-benzodiazepine-2,4(3H,5H)-dione]	158		41	
COc1ccc(N(C(=O)CN2C(=O)C(Cc3n[nH]c4ccccc34)(OC)C(=O)N(c3cccnc3)c3ccccc32)C(C)C)cc1 (racemic) [Example 8, 2-[3-(1H-indazol-3-ylmethyl)-3-methoxy-2,4-dioxo-5-pyridin-3-yl-2,3,4,5-tetrahydro-1H-1,5-benzodiazepin-1-yl]-N-isopropyl-N-(4-methoxyphenyl)acetamide]	251		74	
Cc1cc(C)c2c(c1)N(C(=O)CN1C(=O)[C@@H](Cc3n[nH]c4c3CCCC4)C(=O)N(c3ccccc3)c3ccccc31)CCCC2 [Example 6, (3R)-1-[2-(6,8-dimethyl-2,3,4,5-tetrahydro-1H-1-benzazepin-1-yl)-2-oxoethyl]-5-phenyl-3-(4,5,6,7-tetrahydro-1H-indazol-3-ylmethyl)-1H-1,5-benzodiazepine-2,4(3H,5H)-dione]	257		35	
O=C(CN1C(=O)C(Cc2n[nH]c3ccccc23)C(=O)N(c2ccccc2)c2ccccc21)N1CCCCc2ccccc21 (racemic) [Example 1, 3-(1H-indazol-3-ylmethyl)-1-[2-oxo-2-(2,3,4,5-tetrahydro-1H-1-benzazepin-1-yl)ethyl]-5-phenyl-1H-1,5-benzodiazepine-2,4(3H,5H)-dione]	309		60	
COc1cccc2c1CCCCN2C(=O)CN1C(=O)[C@@H](Cc2n[nH]c3ccccc23)C(=O)N(c2ccccc2)c2ccccc21 [Example 5, (3R)-3-(1H-indazol-3-ylmethyl)-1-[2-(6-methoxy-2,3,4,5-tetrahydro-1H-1-benzazepin-1-yl)-2-oxoethyl]-5-phenyl-1H-1,5-benzodiazepine-2,4(3H,5H)-dione]	282		44	186 to 214
O=C(CN1C(=O)C(Cc2n[nH]c3cc(F)ccc23)C(=O)N(c2ccccc2)c2ccccc21)N1CCCCc2ccccc21 (centres unmarked) [Example 12, 3-[(6-fluoro-1H-indazol-3-yl)methyl]-1-[2-oxo-2-(2,3,4,5-tetrahydro-1H-1-benzazepin-1-yl)ethyl]-5-phenyl-1H-1,5-benzodiazepine-2,4(3H,5H)-dione]	174		52	
COC1(Cc2n[nH]c3ccccc23)C(=O)N(CC(=O)N2CCCCc3ccccc32)c2ccccc2N(c2ccccc2)C1=O (centres unmarked) [Example 11, 3-(1H-indazol-3-ylmethyl)-3-methoxy-1-[2-oxo-2-(2,3,4,5-tetrahydro-1H-1-benzazepin-1-yl)ethyl]-5-phenyl-1H-1,5-benzodiazepine-2,4(3H,5H)-dione]	112		59	
COc1cccc2c1CCCCN2C(=O)CN1C(=O)C(Cc2n[nH]c3ccccc23)C(=O)N(c2ccccc2)c2ccccc21 (racemic) [Example 4, 3-(1H-indazol-3-ylmethyl)-1-[2-(6-methoxy-2,3,4,5-tetrahydro-1H-1-benzazepin-1-yl)-2-oxoethyl]-5-phenyl-1H-1,5-benzodiazepine-2,4(3H,5H)-dione]	178		45	
